{"source": "ChEMBL document CHEMBL5465560", "about": "“Selectivity Literature for EUbOPEN Chemogenomic Library” (2024)", "key": {"[1]": {"target": "Glycogen synthase kinase-3 beta (Homo sapiens, UniProt P49841)", "assay": "Selectivity interaction (Upstate Kinase Profiler service (Millipore)) EUB0000056c GSK3B", "details": "at 1 µM"}, "[2]": {"target": "Casein kinase I isoform gamma-3 (Homo sapiens) (UniProt Q9Y6M4)", "sequence (Q9Y6M4 whole entry, looked up, canonical isoform)": "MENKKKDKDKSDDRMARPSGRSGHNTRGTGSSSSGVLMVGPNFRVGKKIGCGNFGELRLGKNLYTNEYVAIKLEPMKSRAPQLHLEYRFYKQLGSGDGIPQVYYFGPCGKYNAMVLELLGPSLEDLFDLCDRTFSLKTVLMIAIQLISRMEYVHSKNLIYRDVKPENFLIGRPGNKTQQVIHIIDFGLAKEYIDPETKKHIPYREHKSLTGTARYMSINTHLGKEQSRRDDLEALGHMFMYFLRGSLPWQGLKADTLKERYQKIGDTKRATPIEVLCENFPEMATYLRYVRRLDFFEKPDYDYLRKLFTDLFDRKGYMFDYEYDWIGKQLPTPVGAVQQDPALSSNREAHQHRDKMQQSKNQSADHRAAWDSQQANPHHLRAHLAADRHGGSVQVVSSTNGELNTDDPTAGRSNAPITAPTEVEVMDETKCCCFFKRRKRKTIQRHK", "assay": "Selectivity interaction (KinomeScan (DiscoverX)) EUB0000655a CSNK1G3", "details": "at 10 µM"}, "[3]": {"target": "Mitogen-activated protein kinase kinase kinase kinase 5 (Homo sapiens) (UniProt Q9Y4K4)", "sequence (Q9Y4K4 whole entry, looked up)": "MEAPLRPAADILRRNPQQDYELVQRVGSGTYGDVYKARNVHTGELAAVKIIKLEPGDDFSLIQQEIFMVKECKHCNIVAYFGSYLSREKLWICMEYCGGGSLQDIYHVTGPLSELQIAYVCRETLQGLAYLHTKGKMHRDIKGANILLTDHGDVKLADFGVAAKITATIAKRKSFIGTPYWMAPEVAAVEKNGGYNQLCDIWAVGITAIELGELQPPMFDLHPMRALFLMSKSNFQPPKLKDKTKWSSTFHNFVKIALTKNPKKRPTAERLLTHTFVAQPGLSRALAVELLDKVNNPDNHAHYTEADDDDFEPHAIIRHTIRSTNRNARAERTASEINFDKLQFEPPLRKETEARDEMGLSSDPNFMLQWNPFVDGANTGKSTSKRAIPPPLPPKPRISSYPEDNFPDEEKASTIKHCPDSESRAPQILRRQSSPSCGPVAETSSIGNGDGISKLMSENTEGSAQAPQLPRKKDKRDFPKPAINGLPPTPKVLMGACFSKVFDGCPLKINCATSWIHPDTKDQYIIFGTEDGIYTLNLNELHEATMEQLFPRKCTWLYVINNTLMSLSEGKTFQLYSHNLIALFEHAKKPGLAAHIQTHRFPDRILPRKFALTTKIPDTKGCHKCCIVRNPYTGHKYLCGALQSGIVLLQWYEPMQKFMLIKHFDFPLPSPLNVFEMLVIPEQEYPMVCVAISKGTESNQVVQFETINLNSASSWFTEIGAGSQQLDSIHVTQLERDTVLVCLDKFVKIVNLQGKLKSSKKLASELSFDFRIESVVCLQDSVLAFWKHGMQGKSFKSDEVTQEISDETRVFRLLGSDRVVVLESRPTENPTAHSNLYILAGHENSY", "assay": "Selectivity interaction (Kinase panel (KiNativ target engagement assay in Jurkat cells)) EUB0001635a MAP4K5", "type": "cell-based", "details": "Selectivity number of off-targets 0.0, Selectivity number of targets 233.0, Source Knowledge https://www.sciencedirect.com/science/article/pii/S2451945619300674?via%3Dihub, at 1 µM"}, "[4]": {"target": "Myosin light chain kinase, smooth muscle (Homo sapiens, UniProt Q15746)", "sequence (Q15746 whole entry)": "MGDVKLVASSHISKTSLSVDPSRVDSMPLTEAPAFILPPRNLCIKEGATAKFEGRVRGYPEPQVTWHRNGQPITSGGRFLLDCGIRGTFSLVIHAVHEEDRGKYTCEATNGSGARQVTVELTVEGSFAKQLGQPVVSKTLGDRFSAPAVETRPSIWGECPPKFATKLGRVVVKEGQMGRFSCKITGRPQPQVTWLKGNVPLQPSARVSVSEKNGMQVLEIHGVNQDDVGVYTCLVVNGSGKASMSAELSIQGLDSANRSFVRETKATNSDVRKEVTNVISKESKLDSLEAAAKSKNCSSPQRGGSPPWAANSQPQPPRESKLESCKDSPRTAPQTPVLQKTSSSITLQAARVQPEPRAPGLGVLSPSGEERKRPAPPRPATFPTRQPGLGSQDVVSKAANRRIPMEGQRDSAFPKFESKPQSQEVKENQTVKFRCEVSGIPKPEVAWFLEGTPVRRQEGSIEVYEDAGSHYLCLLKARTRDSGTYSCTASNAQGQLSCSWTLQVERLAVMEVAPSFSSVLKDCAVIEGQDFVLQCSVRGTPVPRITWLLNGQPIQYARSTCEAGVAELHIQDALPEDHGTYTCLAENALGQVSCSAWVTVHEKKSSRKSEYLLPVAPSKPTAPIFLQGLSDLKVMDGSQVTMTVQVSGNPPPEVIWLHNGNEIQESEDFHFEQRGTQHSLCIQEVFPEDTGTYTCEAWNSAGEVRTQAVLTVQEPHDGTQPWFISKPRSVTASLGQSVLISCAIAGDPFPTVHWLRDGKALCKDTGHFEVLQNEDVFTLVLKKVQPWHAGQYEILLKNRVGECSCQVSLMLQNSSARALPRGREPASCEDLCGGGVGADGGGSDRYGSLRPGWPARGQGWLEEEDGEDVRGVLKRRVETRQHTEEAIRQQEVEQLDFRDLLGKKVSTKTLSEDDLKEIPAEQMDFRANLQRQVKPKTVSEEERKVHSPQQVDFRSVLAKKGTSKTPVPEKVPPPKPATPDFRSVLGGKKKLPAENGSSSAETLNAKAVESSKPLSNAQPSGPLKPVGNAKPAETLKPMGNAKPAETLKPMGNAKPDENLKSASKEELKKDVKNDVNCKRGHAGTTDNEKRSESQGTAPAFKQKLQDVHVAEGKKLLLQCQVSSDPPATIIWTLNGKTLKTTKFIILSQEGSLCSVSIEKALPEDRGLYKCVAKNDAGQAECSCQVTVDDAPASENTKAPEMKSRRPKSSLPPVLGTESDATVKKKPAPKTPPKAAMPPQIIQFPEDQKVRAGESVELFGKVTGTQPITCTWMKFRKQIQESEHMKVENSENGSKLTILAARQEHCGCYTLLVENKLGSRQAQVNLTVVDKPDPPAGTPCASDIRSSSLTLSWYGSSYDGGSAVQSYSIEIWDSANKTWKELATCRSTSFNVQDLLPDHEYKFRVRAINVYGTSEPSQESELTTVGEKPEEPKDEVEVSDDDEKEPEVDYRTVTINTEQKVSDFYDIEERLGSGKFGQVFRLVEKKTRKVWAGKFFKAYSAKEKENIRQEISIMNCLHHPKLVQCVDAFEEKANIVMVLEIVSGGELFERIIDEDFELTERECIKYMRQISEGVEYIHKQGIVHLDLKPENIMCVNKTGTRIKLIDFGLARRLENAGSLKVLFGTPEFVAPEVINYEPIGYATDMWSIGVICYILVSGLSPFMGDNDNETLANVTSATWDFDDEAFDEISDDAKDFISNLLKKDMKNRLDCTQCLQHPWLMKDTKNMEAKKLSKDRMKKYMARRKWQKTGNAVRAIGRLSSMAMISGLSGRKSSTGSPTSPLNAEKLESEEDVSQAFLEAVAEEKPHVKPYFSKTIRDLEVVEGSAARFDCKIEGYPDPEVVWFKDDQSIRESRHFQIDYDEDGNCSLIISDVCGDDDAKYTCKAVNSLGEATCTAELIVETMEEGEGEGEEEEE", "assay": "Selectivity interaction (Kinase panel (Invitrogen)) EUB0000639a MYLK", "details": "at 200 nM"}, "[5]": {"target": "Serine/threonine-protein kinase RIO2 (Homo sapiens) (UniProt Q9BVS4)", "sequence (Q9BVS4 whole entry, looked up)": "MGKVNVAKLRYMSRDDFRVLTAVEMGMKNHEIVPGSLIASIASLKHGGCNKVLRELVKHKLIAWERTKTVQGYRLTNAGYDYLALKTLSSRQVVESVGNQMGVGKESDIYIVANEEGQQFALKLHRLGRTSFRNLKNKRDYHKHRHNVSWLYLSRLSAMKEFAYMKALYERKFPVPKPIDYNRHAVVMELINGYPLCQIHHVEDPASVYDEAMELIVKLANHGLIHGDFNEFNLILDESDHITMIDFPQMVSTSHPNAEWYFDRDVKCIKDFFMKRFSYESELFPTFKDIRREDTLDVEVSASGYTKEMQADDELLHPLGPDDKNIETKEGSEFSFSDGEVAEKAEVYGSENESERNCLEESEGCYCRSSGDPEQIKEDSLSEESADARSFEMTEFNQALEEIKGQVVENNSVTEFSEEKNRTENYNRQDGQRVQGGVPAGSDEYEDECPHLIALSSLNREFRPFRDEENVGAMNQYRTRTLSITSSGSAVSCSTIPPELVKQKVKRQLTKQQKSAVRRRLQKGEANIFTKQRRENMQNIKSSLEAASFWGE", "assay": "Selectivity interaction (KinomeScan (DiscoverX)) EUB0000045b RIOK2"}, "[6]": {"target": "T1, Serine/threonine-protein kinase TAO3 (Homo sapiens) (UniProt Q9H2K8)", "T1 sequence (whole entry)": "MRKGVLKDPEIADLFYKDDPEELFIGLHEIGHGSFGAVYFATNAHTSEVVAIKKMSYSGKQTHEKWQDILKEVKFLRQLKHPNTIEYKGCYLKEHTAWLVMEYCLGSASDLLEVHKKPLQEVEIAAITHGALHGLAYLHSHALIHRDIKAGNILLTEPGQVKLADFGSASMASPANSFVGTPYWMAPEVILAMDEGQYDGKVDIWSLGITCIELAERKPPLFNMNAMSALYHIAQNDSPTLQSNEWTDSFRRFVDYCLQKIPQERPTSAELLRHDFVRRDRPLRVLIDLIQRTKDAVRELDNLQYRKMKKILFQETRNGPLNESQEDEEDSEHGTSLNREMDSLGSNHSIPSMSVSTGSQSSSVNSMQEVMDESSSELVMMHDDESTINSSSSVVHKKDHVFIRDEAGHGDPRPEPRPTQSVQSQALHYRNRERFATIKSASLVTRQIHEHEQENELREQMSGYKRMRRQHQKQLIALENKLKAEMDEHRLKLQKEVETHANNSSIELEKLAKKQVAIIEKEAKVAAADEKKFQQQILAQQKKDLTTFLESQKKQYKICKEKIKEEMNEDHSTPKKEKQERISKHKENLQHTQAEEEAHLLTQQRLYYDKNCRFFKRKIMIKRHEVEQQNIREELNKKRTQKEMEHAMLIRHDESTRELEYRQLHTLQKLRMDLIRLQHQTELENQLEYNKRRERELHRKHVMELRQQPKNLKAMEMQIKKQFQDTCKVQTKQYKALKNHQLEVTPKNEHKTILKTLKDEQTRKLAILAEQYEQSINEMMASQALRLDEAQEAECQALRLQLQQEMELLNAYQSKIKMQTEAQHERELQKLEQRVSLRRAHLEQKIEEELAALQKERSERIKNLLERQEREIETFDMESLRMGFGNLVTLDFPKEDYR", "assay": "Selectivity interaction (KinomeScan (DiscoverX)) EUB0000045b TAOK3"}, "[7]": {"target": "T2, Serine/threonine-protein kinase Nek9 (Homo sapiens) (UniProt Q8TD19)", "T2 sequence (whole entry)": "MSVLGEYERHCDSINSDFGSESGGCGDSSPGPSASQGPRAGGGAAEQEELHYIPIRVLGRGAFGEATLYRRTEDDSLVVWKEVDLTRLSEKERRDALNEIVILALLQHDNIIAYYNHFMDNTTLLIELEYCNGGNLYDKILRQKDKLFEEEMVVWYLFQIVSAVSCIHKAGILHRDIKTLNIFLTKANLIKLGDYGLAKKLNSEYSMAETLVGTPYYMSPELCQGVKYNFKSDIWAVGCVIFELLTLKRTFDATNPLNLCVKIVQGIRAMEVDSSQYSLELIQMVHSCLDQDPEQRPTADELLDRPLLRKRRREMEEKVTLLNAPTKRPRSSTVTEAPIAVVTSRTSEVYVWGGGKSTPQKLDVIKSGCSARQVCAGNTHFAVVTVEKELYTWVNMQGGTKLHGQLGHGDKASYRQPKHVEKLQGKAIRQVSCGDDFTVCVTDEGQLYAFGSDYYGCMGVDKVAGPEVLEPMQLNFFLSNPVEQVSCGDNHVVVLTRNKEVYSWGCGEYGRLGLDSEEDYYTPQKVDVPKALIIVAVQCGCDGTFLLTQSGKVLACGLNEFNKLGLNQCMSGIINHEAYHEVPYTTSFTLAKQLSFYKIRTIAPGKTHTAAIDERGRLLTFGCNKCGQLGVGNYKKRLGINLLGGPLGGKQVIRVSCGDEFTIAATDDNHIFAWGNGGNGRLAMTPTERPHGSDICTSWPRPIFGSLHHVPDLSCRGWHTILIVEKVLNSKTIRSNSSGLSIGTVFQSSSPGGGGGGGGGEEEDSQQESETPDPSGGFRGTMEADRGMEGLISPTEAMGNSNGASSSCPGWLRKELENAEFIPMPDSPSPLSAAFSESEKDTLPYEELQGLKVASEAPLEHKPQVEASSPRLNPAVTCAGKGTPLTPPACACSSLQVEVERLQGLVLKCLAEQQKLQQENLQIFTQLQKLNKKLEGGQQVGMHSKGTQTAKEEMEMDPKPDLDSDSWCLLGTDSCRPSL", "assay": "Selectivity interaction (Ambit KINOMEscan and KiNATiv profiling in Jurkat cells) EUB0000090b NEK9", "type": "cell-based", "details": "at 1 µM"}, "[8]": {"target": "Serine/threonine-protein kinase/endoribonuclease IRE1 (Homo sapiens) (UniProt O75460)", "sequence (O75460 19-977 limits assumed)": "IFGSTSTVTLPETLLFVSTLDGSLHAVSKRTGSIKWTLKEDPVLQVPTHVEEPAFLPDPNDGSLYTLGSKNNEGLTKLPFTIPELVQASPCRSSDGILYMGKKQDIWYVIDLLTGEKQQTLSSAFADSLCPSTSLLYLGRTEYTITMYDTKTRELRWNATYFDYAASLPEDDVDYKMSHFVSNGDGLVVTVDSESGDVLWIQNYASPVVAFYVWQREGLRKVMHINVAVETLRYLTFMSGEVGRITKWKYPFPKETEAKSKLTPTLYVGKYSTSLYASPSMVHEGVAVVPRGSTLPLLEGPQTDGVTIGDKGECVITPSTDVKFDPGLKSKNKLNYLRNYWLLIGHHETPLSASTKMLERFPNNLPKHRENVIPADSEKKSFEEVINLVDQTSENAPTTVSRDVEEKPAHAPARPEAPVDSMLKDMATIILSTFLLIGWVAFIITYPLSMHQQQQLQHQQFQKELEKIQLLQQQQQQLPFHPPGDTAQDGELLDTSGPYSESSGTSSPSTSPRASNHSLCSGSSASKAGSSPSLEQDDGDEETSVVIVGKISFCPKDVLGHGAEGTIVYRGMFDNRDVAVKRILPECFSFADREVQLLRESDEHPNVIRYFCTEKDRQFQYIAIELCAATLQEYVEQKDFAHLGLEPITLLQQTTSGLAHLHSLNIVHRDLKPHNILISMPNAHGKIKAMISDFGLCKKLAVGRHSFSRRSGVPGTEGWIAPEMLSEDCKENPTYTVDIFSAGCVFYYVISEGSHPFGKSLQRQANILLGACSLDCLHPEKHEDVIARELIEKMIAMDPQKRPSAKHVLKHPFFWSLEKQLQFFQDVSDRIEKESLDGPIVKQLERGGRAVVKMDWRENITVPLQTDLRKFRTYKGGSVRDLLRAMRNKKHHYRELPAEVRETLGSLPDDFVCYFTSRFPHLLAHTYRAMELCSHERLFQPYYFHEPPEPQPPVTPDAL", "assay": "Selectivity interaction (ActivX KiNativ screen (ex vivo kinase selectivity in human PBMCs)) EUB0001619a ERN1", "type": "cell-based", "details": "PBMC, at 1 µM"}}, "data": [{"smiles": "Cc1ccc(-c2ccc3c(ccc4sc5c(c43)NC[C@@H](C)NC5=O)n2)cn1", "values": [{"measurement": "% of inhibition", "setting": "[1]", "result": 11, "unit": "%"}]}, {"smiles": "CN(C)CCOc1ccc(-c2nc(-c3ccncc3)c(-c3ccc4c(c3)CC/C4=N\\O)[nH]2)cc1", "values": [{"measurement": "% of control", "setting": "[2]", "result": 92, "unit": "%"}]}, {"smiles": "C=CC(=O)Nc1ccc(C(=O)Nc2[nH]nc3c2CN(C(=O)N[C@H](CN(C)C)c2ccccc2)C3(C)C)cc1", "values": [{"measurement": "% of engagement", "setting": "[3]", "result": 1.1, "unit": "%"}]}, {"smiles": "CC[C@@H]1[C@H](F)C(=O)N[C@@H]1COc1nccc2cc(C(N)=O)c(OC)cc12", "note": "[ZIMLOVISERTIB]", "values": [{"measurement": "% of inhibition", "setting": "[4]", "result": 8.89, "unit": "%"}]}, {"smiles": "C=CC(=O)Nc1cc(-n2c(=O)ccc3cnc4ccc(-c5ccc(NS(C)(=O)=O)cc5)cc4c32)ccc1C", "values": [{"measurement": "% of control", "setting": "[5]; at 1 µM", "result": 66, "unit": "%"}, {"measurement": "% of control", "setting": "[5]; at 10 µM", "result": 43, "unit": "%"}, {"measurement": "% of control", "setting": "[6]; at 1 µM", "result": 100, "unit": "%"}, {"measurement": "% of control", "setting": "[6]; at 10 µM", "result": 100, "unit": "%"}]}, {"smiles": "CN(C)C/C=C/C(=O)Nc1ccc(C(=O)N2CCCC(Nc3ncc(Cl)c(-c4c[nH]c5ccccc45)n3)C2)cc1", "note": "(stereo not given)", "values": [{"measurement": "% of control", "setting": "[7]", "result": 100, "unit": "%"}]}, {"smiles": "N#Cc1cccc(-c2c[nH]c3ncnc(N4CCOCC4)c23)c1", "values": [{"measurement": "% of inhibition", "setting": "[8]", "result": 2, "unit": "%"}]}]}
